Test results: patent US8614333B2, “Acenaphtho heterocyclic compound and application thereof” (Dalian University of Technology, priority 2010, dated 2013)

What was measured:
MCF-7 cells = assay: Cytotoxicity by MTT, cells without plasmid transfection; format: cell-based; details: Homo sapiens, MCF7; MCF-7, MTT, 48 hours; read-out: IC50 value in untransfected cells
Summary of the method: (§1)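 MCF-7 cells transfected with 3 μg BAX/BAK interfering plasmid by calcium phosphate, knockdown checked by Western; untransfected cells run in parallel. Cells treated with a compound concentration gradient for 48 hours; viability by MTT, IC50 derived.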

Mcl-1 protein = Mcl-1 protein (Homo sapiens, UniProt Q07820); assay: Fluorescence polarization assay, competition with FAM-Bid peptide for Mcl-1; details: FAM-Bid 5 nM, 4 hours of incubation, read-out: Mcl-1 binding constants
Mcl-1 protein, sequence (Q07820 whole entry, species assumed): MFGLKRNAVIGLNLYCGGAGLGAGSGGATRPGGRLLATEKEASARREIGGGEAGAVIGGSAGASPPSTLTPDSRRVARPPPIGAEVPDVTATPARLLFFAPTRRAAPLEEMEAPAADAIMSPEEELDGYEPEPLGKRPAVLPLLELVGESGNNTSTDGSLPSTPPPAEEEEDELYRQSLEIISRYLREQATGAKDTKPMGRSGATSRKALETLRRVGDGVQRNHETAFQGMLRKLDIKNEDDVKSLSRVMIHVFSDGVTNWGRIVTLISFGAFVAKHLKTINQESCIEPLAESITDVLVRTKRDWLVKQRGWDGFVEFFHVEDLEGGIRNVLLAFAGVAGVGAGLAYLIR
Experimental: (§2) A Bid BH3 peptide (amino acids: 79-99: […]) having 21 amino acids was synthesized and marked with 6-carboxyfluorescein N-succinimidyl ester (FAM) as fluorescent tag (FAM-Bid) at the N-terminal. The reaction system used in the competitive binding experiment was GST-Bcl-2 protein (40 nM) or Mcl-1 protein, which was dissolved in the reaction buffer (100 mM K3PO4, pH 7.5; 100 μg/ml bovine γ albumin; 0.02% sodium azide) together with FAM-Bid polypeptide (5 nM). In a 96-well plate, 100 µL of the reaction system was added into each well. Then 1 μL different concentration of compound 13 mother solution to be detected dissolved in DMSO was added there into until the final concentration met the experimental design requirements. Meanwhile, two control groups were established, one with the reaction system only containing Bcl-2 or Mcl-1 and FAM-Bid (equivalent to 0% inhibition rate), the other with the reaction system only containing FAM-Bid peptide. After 4 hours of incubation, the 96-well plate was detected by enzyme-labelled meter. The fluorescent polarization value (mP) was tested at […]. Ki value was deduced according to calculation formula.
(§3) The BH3 analogous degrees of other 12 compounds were detected by using the experimental method as described above.

[1] = tested on: MCF-7 cells transfected with BAX/BAK interfering plasmid; assay: Cytotoxicity by MTT, cells transfected with BAX/BAK interfering plasmid; format: cell-based; details: Homo sapiens, MCF7; MCF-7 with BAX/BAK interfering plasmid, MTT, 48 hours
Summary of the method: as §1

[2] = molecular target: T1, interaction between Bcl-2 and Bax (Homo sapiens, UniProt P10415); assay: Intracellular FRET, Bcl-2-CFP/Bax-YFP in Hela cells; format: cell-based; details: for Time (time period after which the interaction between Bcl-2 and Bax was interfered): at the concentration given
T1 construct: expressed in transfected cells; host or cells: Hela cells
T1 sequence (P10415 whole entry): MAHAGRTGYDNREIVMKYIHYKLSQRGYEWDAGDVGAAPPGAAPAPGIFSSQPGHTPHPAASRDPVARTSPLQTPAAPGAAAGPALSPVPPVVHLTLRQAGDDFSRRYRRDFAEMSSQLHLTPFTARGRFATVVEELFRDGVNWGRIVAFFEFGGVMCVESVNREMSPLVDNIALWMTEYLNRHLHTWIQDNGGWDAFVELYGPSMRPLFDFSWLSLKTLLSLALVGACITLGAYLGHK
Summary of the method: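 Hela cells transfected with Bcl-2-CFP and/or Bax-YFP plasmids, then treated with compound in DMSO at 2, 5, 10 and 15 μM for 24 h, or at 40 μM for 3, 6 and 24 h. FRET taken as the 527/475 nm emission ratio at 433 nm excitation, with singly transfected controls set to 1.0. Viability checked by MTT.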

Mcl-1 = assay: Western blotting, semiquantitative analysis of Mcl-1 protein bands; format: cell-based; details: control = 1, tumor cells
Experimental: (§4) The interest protein was detected by the corresponding antibody. The expression of the interest protein in the cells was detected by horseradish peroxidase-labeled secondary antibodies in combination with ECL coloration method. […] The concentration of the protein bands in the Western images were carried out semiquantitative analysis and normalization treatment with KODAK Gel Logic 1500 imaging system software.

GST-Bcl-2 protein = GST-Bcl-2 protein (Homo sapiens, UniProt P10415); assay: Fluorescence polarization assay, competition with FAM-Bid peptide for Bcl-2; details: GST-Bcl-2 40 nM, FAM-Bid 5 nM, 4 hours of incubation, read-out: Bcl-2 binding constants
GST-Bcl-2 protein, sequence (P10415 whole entry): as above
Experimental: as §2, §3

[3] = tested on: BAX shift towards the chondriosome; assay: Co-localization between Bax protein and chondriosome, Bax-YFP in MCF-7 cells; format: cell-based; details: for Doses (concentration at which the compound drove the BAX to shift towards the chondriosome): Bax-YFP/Mito Tracker Red; for Time (time period after which BAX shifted towards the chondriosome): at the concentration given
Summary of the method: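 MCF-7 cells transfected with Bax-YFP plasmid; 24 h later treated with 10 μM compound for 6 h, then stained 10 min with 50 nM MitoTracker Red CMXRos. Dual-channel laser confocal imaging; Bax mitochondrial localization read as green/red overlap (orange).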

Bcl-2 = assay: Western blotting, semiquantitative analysis of Bcl-2 protein bands; format: cell-based; details: control = 1, tumor cells
Experimental: as §4

Ki (Mcl-1 protein) [nM]	Doses (concentration at which the compound interfered with the interaction between Bcl-2 and Bax) [2] [µM]	Time (time period after which the interaction between Bcl-2 and Bax was interfered) [2] [h]	Ki (GST-Bcl-2 protein) [nM]	Compound	IC50 (MCF-7 cells) [nM]	IC50 [1] [nM]	concentration of the protein bands (semiquantitative, normalized), Mcl-1 (Mcl-1; 2 h)	concentration of the protein bands (semiquantitative, normalized), Mcl-1 (Mcl-1; 6 h)	Doses (concentration at which the compound drove the BAX to shift towards the chondriosome) [3] [µM]	Time (time period after which BAX shifted towards the chondriosome) [3] [h]	concentration of the protein bands (semiquantitative, normalized), Bcl-2 (Bcl-2; 6 h)	concentration of the protein bands (semiquantitative, normalized), Bcl-2 (Bcl-2; 12 h)	concentration of the protein bands (semiquantitative, normalized), Bcl-2 (Bcl-2; 18 h)	concentration of the protein bands (semiquantitative, normalized), Bcl-2 (Bcl-2; 24 h)
85	0.5	2	9	CC(C)c1ccc(Sc2ccc3cccc4c3c2C2=NC(=O)C(C#N)=C24)cc1 [Compound 22, 6-(4-Isopropyl-phenylsulfanyl)-8-oxo-8H-acenaphtho[1,2-b]pyrrole-9-carbonitrile]	1200	> 50000	0.68	0.49	5.0	3	0.99	0.99	0.60	0.37
65	0.2	2	12	CCC(C)c1ccc(Sc2ccc3c4c(cccc24)C2=NC(=O)C(C#N)=C23)cc1 (centres unmarked) [Compound 21, 3-(4-sec-Butyl-phenylsulfanyl)-8-oxo-8H-acenaphtho[1,2-b]pyrrole-9-carbonitrile]	1500	> 50000	0.59	0.28	2.0	2	0.99	0.99	0.49	0.18
8	0.5	4	120	CC(C)Cc1ccc(Sc2ccc3c4c(cccc24)C2=NC(=O)C(C#N)=C23)cc1 [Compound 18, 3-(4-Isobutyl-phenylsulfanyl)-8-oxo-8H-acenaphtho[1,2-b]pyrrole-9-carbonitrile]	6800	> 50000	0.66	0.39	5.0	4	0.99	0.99	0.36	0.10

Compound	Ki (Mcl-1 protein) [nM]	Doses (concentration at which the compound interfered with the interaction between Bcl-2 and Bax) [2] [µM]	Time (time period after which the interaction between Bcl-2 and Bax was interfered) [2] [h]	Ki (GST-Bcl-2 protein) [nM]	IC50 (MCF-7 cells) [nM]	IC50 [1] [nM]	concentration of the protein bands (semiquantitative, normalized), Mcl-1 (Mcl-1; 2 h)	concentration of the protein bands (semiquantitative, normalized), Mcl-1 (Mcl-1; 6 h)	Doses (concentration at which the compound drove the BAX to shift towards the chondriosome) [3] [µM]	Time (time period after which BAX shifted towards the chondriosome) [3] [h]	concentration of the protein bands (semiquantitative, normalized), Bcl-2 (Bcl-2; 6 h)	concentration of the protein bands (semiquantitative, normalized), Bcl-2 (Bcl-2; 12 h)	concentration of the protein bands (semiquantitative, normalized), Bcl-2 (Bcl-2; 18 h)	concentration of the protein bands (semiquantitative, normalized), Bcl-2 (Bcl-2; 24 h)
CC(C)c1ccc(Oc2ccc3c4c(cccc24)C2=NC(=O)C(C#N)=C23)cc1 [Compound 17, 3-(4-Isopropyl-phenoxy)-8-oxo-8H-acenaphtho[1,2-b]pyrrole-9-carbonitrile]	85	0.1	2	20	2000	> 50000	0.65	0.37	1.0	1	0.99	0.99	0.58	0.11
